Where two headings read alike, the source gives them in different places.
Legend:
[1] = tested on: human fibroblast/keratinocyte culture; assay: Total collagen produced in culture medium of co-cultured human fibroblasts/keratinocytes after administration of NAC; type: cell-based; conditions: for total collagen produced: 13 days, control without NAC 77.1-99.5 μg/mL, FIG. 27
Protocol: (§1) The human keratinocyte culture obtained by culture for 7 days according to Example 3.1.2 was removed, followed by washing once with PBS. Thereafter, 3 mL of Accutase was added, and then the keratinocytes were suspended by treatment with chemical reaction for 10 minutes in an incubator at 37° C. After 40 mL of PBS was added to the Accutase solution, the mixture was centrifuged at 800 rpm and 25° C. for 5 minutes, and the supernatant was then removed. To the keratinocyte precipitate, FAD medium (DMEM/F12 (1:1)+Glutamax-I, 1% penicillin, 2 mM L-glutamine, 10 mg/L insulin, 5.5 mg/L transferrin, 5 μg/L selenite, 50 μM L-ascorbic acid 2-phosphate, 1 μM hydrocortisone, 0.02 nM triiodothyronine (T3), 10 μg/L epidermal growth factor (EGF), and 1 μM isoproterenol) supplemented with 5% fatal bovine serum was added. The human dermal fibroblasts culture obtained by culture for 7 days in Example 3.1.1 was removed, and then the keratinocytes were dispensed thereon at a density of 1-2×10^6 cells per culture dish and cultured in an incubator at 37° C. for 24 hours.
(§2) The human fibroblast/keratinocyte culture obtained by culture for 24 hours according to Example 3.1.3 was removed, followed by washing once with PBS. To 35 mL of a serum-free FAD medium (DMEM/F12 (1:1)+Glutamax-I, 1% penicillin, 2 mM L-glutamine, 10 mg/L insulin, 5.5 mg/L transferrin, 5 μg/L selenite, 50 μM L-ascorbic acid 2-phosphate, 1 μM hydrocortisone, 0.02 nM triiodothyronine (T3), 10 μg/L epidermal growth factor (EGF), and 1 μM isoproterenol), N-acetyl cysteine (NAC) was added at a concentration of 0.1 mM, 0.5 mM, 1 mM, or 5 mM, and then the cells were cultured in an incubator at 37° C. for a total of 13 days while the medium was exchanged every 2-3 days. The culture obtained by previous culture was collected.
(§3) The analysis method followed the manufacturer's instructions.

Human fibroblasts [2] = conditions: for extracellular matrix production: 0.02 nM triiodothyronine or 1 μM isoprenaline added to medium with insulin, EGF and hydrocortisone (Table 2), FIGS. 10 and 11
Protocol: as §3
Culture media each lacking an individual factor were prepared, and then culture was performed according to Example 1.1.
Then, culture was performed according to Example 1.1.

[3] = tested on: human fibroblast/keratinocyte culture; assay: Type IV collagen produced in culture medium of co-cultured human fibroblasts/keratinocytes after administration of vitamin C; type: cell-based; conditions: serum-free FAD medium, 13 days, FIG. 28
Protocol: as §1
as §2, with “vitamin C” for “N-acetyl cysteine (NAC)”, “50 μM, 100 μM,” for “0.1 mM, 0.5 mM, 1 mM,”, “200 μM,” for “5 mM,”
as §3

Human fibroblasts [4] = assay: Total collagen content in cell culture of single-cultured human fibroblasts (Sirius Red kit, absorbance 530 nm); conditions: 50 μM ascorbate-2-phosphate added to medium with insulin, EGF and hydrocortisone (Table 2); FIG. 11
Protocol: To measure the human collagen content in the extracellular matrix present in a culture obtained according to each example described below, quantitative analysis was conducted by utilizing a commercially available Sirius Red kit (Chondrex, #9062). The analysis method followed the manufacturer's instructions. Specifically, Sirius Red solution was added to the culture, followed by incubation, and the precipitated collagen was then mixed with an acidic solution and quantitatively analyzed by measurement of absorbance at 530 nm.
Human fibroblasts were seeded at a density of 3×10^5 cells per 150-mm^2 culture dish. The cells were cultured in high-glucose Dulbecco's Modified Eagle's Medium (DMEM) supplemented with 10% fetal bovine serum and 1% penicillin for 7 days while a growth medium was exchanged every 2-3 days.
(§4) After being cultured according to Example 1.1.1, the cells were further cultured from day 8 using a serum-free/xeno-free culture medium [Dulbecco's Modified Eagle Medium: Ham's F-12 (1:1) supplemented with 100 (DMEM/F12) U/mL penicillin/streptomycin, 2 mM L-alanyl-L-glutamine, 5 μg/L selenium, 50 M ascorbate-2-phosphate, 10 mg/L insulin, 1 μM hydrocortisone, 0.02 nM triiodothyronine, 1 μM isoprenaline, and 10 μg/L epidermal growth factor] while the medium was exchanged at intervals of 2 to 3 days. […] The cell culture after collection was analyzed according to Example 3. […]

Human fibroblasts [5] = assay: Laminin content in cell culture of single-cultured human fibroblasts (anti-human laminin antibody plate kit, absorbance 450 nm); conditions: 50 μM ascorbate-2-phosphate added to medium with insulin, EGF and hydrocortisone (Table 2); FIG. 10
Protocol: To measure the amount of human laminin component in the extracellular matrix present in a culture obtained according to each example described below, quantitative analysis was conducted by using a commercially available analysis kit (TakaRa, MK107). The analysis method followed the manufacturer's instructions. Specifically, the culture was added onto a 96-well plate coated with an anti-human laminin antibody, followed by incubation. Thereafter, residues were washed off, and a chromogenic enzyme-conjugated specific antibody was added, followed by incubation. Then, quantitative analysis was conducted by measurement of the absorbance at 450 nm.
Human fibroblasts were seeded at a density of 3×10^5 cells per 150-mm^2 culture dish. […]
as §4

[6] = NAC at a concentration of 1 mM or higher (1 mM, 5 mM)
[7] = factor individually removed from serum-free/xeno-free culture medium (Table 1), compared with medium containing all factors, FIGS. 8 and 9

Compound: CC(=O)N[C@@H](CS)C(=O)O [NAC, N-acetyl cysteine]
- total collagen produced ([1]; 0.1 mM NAC in serum-free FAD medium): 122.1 to 137.5 µg/mL
- total collagen produced ([1]; 0.5 mM NAC in serum-free FAD medium): 112.7 to 130.9 µg/mL
- amount of collagen produced [1, 6]: reduced
- cytotoxicity [1, 6]: cytotoxicity was observed

Compound: O=C[C@H](O)[C@@H](O)[C@H](O)[C@H](O)CO [glucose]
- amount of extracellular matrix produced (Human fibroblasts [2]; glucose concentration 55 mM in DMEM medium (compared with 5.5, 25 and 40 mM), FIGS. 14 and 15): reduced

Compound: C[C@]12CCC(=O)C=C1CC[C@@H]1[C@@H]2[C@@H](O)C[C@@]2(C)[C@H]1CC[C@]2(O)C(=O)CO [hydrocortisone, reference compound]
- amount of extracellular matrix produced (Human fibroblasts [2]; [7]): significantly reduced

Compound: CC(C)NCC(O)c1ccc(O)c(O)c1 (centres unmarked) [isoprenaline, reference compound]
- extracellular matrix production (Human fibroblasts [2]): affected

Compound: N[C@@H](Cc1cc(I)c(Oc2ccc(O)c(I)c2)c(I)c1)C(=O)O [triiodothyronine, reference compound]
- extracellular matrix production (Human fibroblasts [2]): affected

Compound: O=C1O[C@H]([C@@H](O)CO)C(O)=C1O [vitamin C]
- Type IV collagen produced ([3]; 50 μM vitamin C (called control group)): 4.17 µg/mL
- Type IV collagen produced ([3]; 100 μM vitamin C): 5.6 µg/mL
- Type IV collagen produced ([3]; 200 μM vitamin C): 5.69 µg/mL

Compound: ascorbate-2-phosphate
- collagen production (Human fibroblasts [4]): greatly affected
- laminin production (Human fibroblasts [5]): did not affect

Compound: insulin: additive of the serum-free/xeno-free culture medium, 10 mg/L
- amount of extracellular matrix produced (Human fibroblasts [2]; [7]): significantly reduced
